Results reported in PubChem BioAssay AID1919001 (Molecular Pharmacology Branch, DTP, NCI, 2023).
Where “and” joins values, the source holds several entries; their conditions need not be identical. Equal values may be shown once.

Tested on: 699152-130-R-J1-PDC complex spheroid growth
Assay: Anticancer human tumor 699152-130-R-J1-PDC patient-derived pancreatic carcinoma cell line growth inhibition [AhR]
Conditions: for viability, T/C: stronger effect = lower value
How it was run: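 Complex tumor spheroids co-cultured with HUVEC and human MSC stroma; AhR antagonists tested in combination with standard-of-care and investigational agents. Top concentration at or near clinical Cmax (else 10 microM), half-log dilutions; growth expressed as percent test/control.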

[1] = curve of first compound, second compound 0.1 µM
[2] = curve of first compound, second compound 0.316 µM
[3] = curve of first compound, second compound 1 µM
[4] = curve of first compound, second compound 3.16 µM
[5] = curve of first compound, second compound 10 µM
[6] = second compound 0.1 µM, first compound 0.0316 µM
[7] = second compound 0.1 µM, first compound 0.1 µM
[8] = second compound 0.1 µM, first compound 0.316 µM
[9] = second compound 0.1 µM, first compound 1 µM
[10] = second compound 0.1 µM, first compound 3.16 µM
[11] = second compound 0.1 µM, first compound 10 µM
[12] = second compound 0.316 µM, first compound 0.0316 µM
[13] = second compound 0.316 µM, first compound 0.1 µM
[14] = second compound 0.316 µM, first compound 0.316 µM
[15] = second compound 0.316 µM, first compound 1 µM
[16] = second compound 0.316 µM, first compound 3.16 µM
[17] = second compound 0.316 µM, first compound 10 µM
[18] = second compound 1 µM, first compound 0.0316 µM
[19] = second compound 1 µM, first compound 0.1 µM
[20] = second compound 1 µM, first compound 0.316 µM
[21] = second compound 1 µM, first compound 1 µM
[22] = second compound 1 µM, first compound 3.16 µM
[23] = second compound 1 µM, first compound 10 µM
[24] = second compound 3.16 µM, first compound 0.0316 µM
[25] = second compound 3.16 µM, first compound 0.1 µM
[26] = second compound 3.16 µM, first compound 0.316 µM
[27] = second compound 3.16 µM, first compound 1 µM
[28] = second compound 3.16 µM, first compound 3.16 µM
[29] = second compound 3.16 µM, first compound 10 µM
[30] = second compound 10 µM, first compound 0.0316 µM
[31] = second compound 10 µM, first compound 0.1 µM
[32] = second compound 10 µM, first compound 0.316 µM
[33] = second compound 10 µM, first compound 1 µM
[34] = second compound 10 µM, first compound 3.16 µM
[35] = second compound 10 µM, first compound 10 µM
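Note: compound exposure lasted 7 days after spheroids had grown for 3 days.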

Compound | IC50 [1] [nM] | IC50 [2] [nM] | IC50 [3] [nM] | IC50 [4] [nM] | IC50 [5] [nM] | viability, T/C [6] [%] | viability, T/C [7] [%] | viability, T/C [8] [%] | viability, T/C [9] [%] | viability, T/C [12] [%] | viability, T/C [13] [%] | viability, T/C [14] [%] | viability, T/C [15] [%] | viability, T/C [18] [%] | viability, T/C [19] [%] | viability, T/C [20] [%] | viability, T/C [21] [%] | viability, T/C [24] [%] | viability, T/C [25] [%] | viability, T/C [26] [%] | other results
COc1cccc2c1C(=O)c1c(O)c3c(c(O)c1C2=O)CC(O)(C(=O)CO)CC3OC1CC(N)C(O)C(C)O1 (stereo unspecified) + CC(CO)NC(=O)c1cc(-c2ccc(Cl)cc2)nn(-c2cnn(C)c2)c1=O | 453 | 378 | 462 | 370 | 325 | 71.2 | 86.7 | 56.8 | 29.1 | 83.2 | 74.2 | 56 | 21.6 | 70.4 | 72.7 | 64.1 | 20.7 | 68.1 | 69.9 | 56.2 | viability, T/C [10]: 1.94%; viability, T/C [11]: 11.6%; viability, T/C [16]: 2.1%; viability, T/C [17]: 11.6%; viability, T/C [22]: 2.66%; viability, T/C [23]: 12.9%; viability, T/C [27]: 9.03%; viability, T/C [28]: 8.71%; viability, T/C [29]: 15.1%; viability, T/C [30]: 73.4%; viability, T/C [31]: 69.3%; viability, T/C [32]: 51.1%; viability, T/C [33]: 2.91%; viability, T/C [34]: 5.62%; viability, T/C [35]: 12.8%
COc1cc(C2c3cc4c(cc3C(OC3OC5COC(C)OC5C(O)C3O)C3COC(=O)C23)OCO4)cc(OC)c1O (stereo unspecified) + Cc1ccccc1N=Nc1ccc(NC(=O)c2ccnn2C)c(C)c1 | > 10000 | 4100 | > 10000 | 7200 | > 10000 | 96.8 | 117 | 74.5 | 62.5 | 95.9 | 88.8 | 66.2 | 62.1 | 104 | 106 | 81 | 62.1 | 108 | 89.4 | 65.4 | viability, T/C [10]: 48.2%; viability, T/C [11]: 48.2%; viability, T/C [16]: 53.6%; viability, T/C [17]: 43.4%; viability, T/C [22]: 60.6%; viability, T/C [23]: 50.5%; viability, T/C [27]: 62.5%; viability, T/C [28]: 54.4%; viability, T/C [29]: 47.3%; viability, T/C [30]: 106%; viability, T/C [31]: 88.7%; viability, T/C [32]: 55%; viability, T/C [33]: 65.1%; viability, T/C [34]: 65.1%; viability, T/C [35]: 57.1%
O=C(c1cc(Cc2n[nH]c(=O)c3ccccc23)ccc1F)N1CCN(C(=O)C2CC2)CC1 + CC(CO)NC(=O)c1cc(-c2ccc(Cl)cc2)nn(-c2cnn(C)c2)c1=O | > 10000 | > 10000 | > 10000 | > 10000 | > 10000 | 85.1 | 107 | 93.3 | 81.8 | 93 | 88.3 | 88.8 | 87.7 | 87.6 | 95.9 | 93.4 | 86.6 | 82.8 | 93.1 | 85.5 | viability, T/C [10]: 97%; viability, T/C [11]: 89.5%; viability, T/C [16]: 77.3%; viability, T/C [17]: 78%; viability, T/C [22]: 85.5%; viability, T/C [23]: 77.4%; viability, T/C [27]: 80.5%; viability, T/C [28]: 65.6%; viability, T/C [29]: 69.7%; viability, T/C [30]: 84.3%; viability, T/C [31]: 83.1%; viability, T/C [32]: 80%; viability, T/C [33]: 75.3%; viability, T/C [34]: 79.3%; viability, T/C [35]: 69.9%
Nc1ncn(C2CC(O)C(CO)O2)c(=O)n1 (stereo unspecified) | – | – | – | – | – | – | – | – | – | – | – | – | – | – | – | – | – | – | – | – | viability, T/C (compound 0.00316 µM): 93.4% and 101% and 95.4%; viability, T/C (compound 0.01 µM): 104% and 93.1% and 106%; viability, T/C (compound 0.0316 µM): 93.1% and 93% and 94.8%; viability, T/C (compound 0.1 µM): 91% and 96.5% and 87.2%; viability, T/C (compound 0.316 µM): 96.5% and 84.4% and 102%; viability, T/C (compound 1 µM): 92.9% and 87.3% and 89%; IC50 (curve of compound): > 1000 nM
NS(=O)(=O)OCC1CC(n2ccc3c(NC4CCc5ccccc54)ncnc32)CC1O (stereo unspecified) + Cc1cncc(-c2nc(NCCc3c[nH]c4ccccc34)c3ncn(C(C)C)c3n2)c1 | 898 | 837 | 889 | 512 | < 31.6 | 112 | 128 | 145 | 41.8 | 114 | 132 | 147 | 35.2 | 131 | 156 | 149 | 39.1 | 104 | 103 | 74.2 | viability, T/C [10]: 21.5%; viability, T/C [11]: 20.9%; viability, T/C [16]: 18.9%; viability, T/C [17]: 21.4%; viability, T/C [22]: 18.8%; viability, T/C [23]: 18.3%; viability, T/C [27]: 16.5%; viability, T/C [28]: 8.14%; viability, T/C [29]: 9.66%; viability, T/C [30]: 23.7%; viability, T/C [31]: 17.8%; viability, T/C [32]: 10.1%; viability, T/C [33]: 5.16%; viability, T/C [34]: 4.2%; viability, T/C [35]: 3.67%
NS(=O)(=O)OCC1CC(n2ccc3c(NC4CCc5ccccc54)ncnc32)CC1O (stereo unspecified) | – | – | – | – | – | – | – | – | – | – | – | – | – | – | – | – | – | – | – | – | viability, T/C (compound 0.0316 µM): 96.1% and 125% and 117%; viability, T/C (compound 0.1 µM): 123% and 111% and 125%; viability, T/C (compound 0.316 µM): 127% and 113% and 129%; viability, T/C (compound 1 µM): 67.1% and 38% and 43.2%; viability, T/C (compound 3.16 µM): 18.2% and 19.7% and 24.9%; viability, T/C (compound 10 µM): 20.3% and 24% and 29.6%; IC50 (curve of compound): 1510 nM and 832 nM and 802 nM
CC1COCCN1c1cc(-c2ccnn2C)c2ccnc(-c3ccn[nH]3)c2n1 (stereo unspecified) + Cc1ccccc1N=Nc1ccc(NC(=O)c2ccnn2C)c(C)c1 | > 1000 | > 1000 | > 1000 | > 1000 | > 1000 | 94.6 | 84.1 | 83.3 | 62.6 | 101 | 82.7 | 68.3 | 61.9 | 101 | 93.5 | 79.5 | 66.9 | 101 | 89.3 | 72.1 | viability, T/C (second compound 0.1 µM, first compound 0.00316 µM): 105%; viability, T/C (second compound 0.1 µM, first compound 0.01 µM): 100%; viability, T/C (second compound 0.316 µM, first compound 0.00316 µM): 87.8%; viability, T/C (second compound 0.316 µM, first compound 0.01 µM): 96.9%; viability, T/C (second compound 1 µM, first compound 0.00316 µM): 99.8%; viability, T/C (second compound 1 µM, first compound 0.01 µM): 110%; viability, T/C (second compound 3.16 µM, first compound 0.00316 µM): 105%; viability, T/C (second compound 3.16 µM, first compound 0.01 µM): 110%; viability, T/C [27]: 60.1%; viability, T/C (second compound 10 µM, first compound 0.00316 µM): 119%; viability, T/C (second compound 10 µM, first compound 0.01 µM): 128%; viability, T/C [30]: 103%; viability, T/C [31]: 116%; viability, T/C [32]: 80.8%; viability, T/C [33]: 65.9%
Cn1ncnc1C1c2n[nH]c(=O)c3cc(F)cc(c23)NC1c1ccc(F)cc1 (stereo unspecified) | – | – | – | – | – | – | – | – | – | – | – | – | – | – | – | – | – | – | – | – | viability, T/C (compound 0.000316 µM): 103% and 92% and 97.7%; viability, T/C (compound 0.001 µM): 100% and 90.9% and 98.2%; viability, T/C (compound 0.00316 µM): 109% and 95.2% and 113%; viability, T/C (compound 0.01 µM): 101% and 102% and 111%; viability, T/C (compound 0.0316 µM): 102% and 100% and 97.5%; viability, T/C (compound 0.1 µM): 104% and 86.2% and 91%; IC50 (curve of compound): > 100 nM
COc1ccc([C@@H](O)c2cc(-c3ncnc4cc(N5CCOCC5)ccc34)c(F)cc2Cl)nn1 + CC(CO)NC(=O)c1cc(-c2ccc(Cl)cc2)nn(-c2cnn(C)c2)c1=O | 3770 | 4810 | 4410 | 4240 | 2610 | 95.1 | 105 | 86.2 | 78.6 | 93.5 | 90.2 | 91.9 | 74.3 | 108 | 100 | 94.2 | 74.1 | 85 | 105 | 94.9 | viability, T/C [10]: 52.5%; viability, T/C [11]: 33.1%; viability, T/C [16]: 61.5%; viability, T/C [17]: 32.1%; viability, T/C [22]: 56.5%; viability, T/C [23]: 35.9%; viability, T/C [27]: 70.6%; viability, T/C [28]: 58.8%; viability, T/C [29]: 34.8%; viability, T/C [30]: 88.8%; viability, T/C [31]: 87.9%; viability, T/C [32]: 68.9%; viability, T/C [33]: 63.4%; viability, T/C [34]: 47.1%; viability, T/C [35]: 38.1%
